For 16 compounds, TGI and GI50 results are on record in PubChem BioAssay (NCI).

Values joined by “and” are separate entries in the source; they are usually repeats but may differ in a detail not shown here. Equal entries are not always repeated.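 Protocol summary: plate cells (96-well), add compound at 5 concentrations, incubate 48 h, interpolate endpoints linearly. GI50 marks 50% less growth. At the TGI there is no net growth.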 Where a SMILES comes first, the peptide text is derived from it. Bridges are numbered along the chain shown (N, C = ends). [ ]: non-standard residue; d: D form. Aib = CC(C)(N)C(=O)O; βAla = NCCC(=O)O

Test systems include SF-539 CNS; 786-0 renal; NCI-H522 lung; HCT-15 colon; MDA-MB-231 breast; BT-549 breast; K-562 leukemia; CAKI-1 renal; MCF7 breast; IGROV1 ovarian; PC-3 prostate; SF-268 CNS; HCC-2998 colon.
Assay in all cases: growth of human tumour cells (NCI), 48 h

In the case of `COc1ccc(S(=O)(=O)N2C(=O)CCC2C(=O)NC(N)=O)cc1` (stereo not given), the TGI in the test on SF-539 CNS, in the test with 786-0 renal, in the test with NCI-H522 lung, in the test with HCT-15 colon, with MDA-MB-231 breast and in the test on BT-549 breast was > 100 µM in each case. Also, the TGI with K-562 leukemia, with CAKI-1 renal, in the test with MCF7 breast, in the test on IGROV1 ovarian and in the test with PC-3 prostate was > 100 µM throughout.
`Oc1c(Br)cc(/C=C/c2ccnc(/C=C/c3cc(Br)c(O)c(Br)c3)c2)cc1Br`: the TGI in the test on SF-539 CNS was 33 µM; in the test with 786-0 renal, 35.3 µM; with HCT-15 colon, 73 µM; in the test on MDA-MB-231 breast, 59.4 µM; in the test on SF-268 CNS, > 100 µM; with BT-549 breast it was > 100 µM. The TGI with K-562 leukemia was 60.1 µM; in the test on CAKI-1 renal, > 100 µM; with MCF7 breast it was 60.3 µM; in the test on IGROV1 ovarian, > 100 µM; in the test with PC-3 prostate it was 39 µM; with HCC-2998 colon, > 100 µM.
Regarding `N#CC12C(=O)N3C(=NC(c4ccco4)NC3c3ccco3)C1(C#N)C(c1ccco1)NC1=C2CCCC1` (stereo not given), the TGI in the test with 786-0 renal, in the test on NCI-H522 lung, with HCT-15 colon, in the test on MDA-MB-231 breast, in the test with SF-268 CNS and with BT-549 breast was > 100 µM in each case. Further, the TGI in the test on K-562 leukemia, with CAKI-1 renal, with MCF7 breast, in the test with IGROV1 ovarian, in the test on PC-3 prostate and in the test with HCC-2998 colon was > 100 µM each time.
As for `C=CC(=O)Nc1ccc(NC(=O)C=C)c2c1C(=O)c1ccccc1C2=O`, the TGI in the test on SF-539 CNS is 70.9 µM; with 786-0 renal, 84.6 µM; in the test with NCI-H522 lung, 34.6 µM; with HCT-15 colon, > 100 µM; in the test with MDA-MB-231 breast it was > 100 µM; in the test with BT-549 breast, > 100 µM. Further, the TGI is 48.4 µM in the test with K-562 leukemia; 57.4 µM in the test with MCF7 breast; > 100 µM in the test with IGROV1 ovarian; > 100 µM in the test on PC-3 prostate; > 100 µM in the test with HCC-2998 colon.
Consider `COc1ccc2c3c1OC1C(F)C=CC4(O)C(C2)NCCC314` (stereo not given), for which the TGI with 786-0 renal is 3.27 µM; in the test with NCI-H522 lung it was 2.02 µM; in the test on HCT-15 colon, 11.1 µM; with MDA-MB-231 breast, 12.7 µM; with SF-268 CNS, 6.93 µM; with BT-549 breast it was 6.66 µM. Moreover, the TGI is > 100 µM with K-562 leukemia; 6.56 µM in the test on CAKI-1 renal; 5.25 µM in the test on MCF7 breast; 20.3 µM in the test on IGROV1 ovarian; 6.92 µM in the test with PC-3 prostate; 12.8 µM in the test with HCC-2998 colon.
As for `CC1(C)NC(=O)C(NC(=O)C(N)CC(=O)O)CCCCNC(=O)CCNC1=O` (stereo not given) (H-DK[Aib][βAla]; lactam 2-C; configuration not given here), the TGI in the test with SF-539 CNS, with 786-0 renal, in the test on NCI-H522 lung, with HCT-15 colon, with MDA-MB-231 breast and with SF-268 CNS was > 100 µM throughout. In addition, the TGI with BT-549 breast, with K-562 leukemia, in the test on CAKI-1 renal, in the test with MCF7 breast, with IGROV1 ovarian and with PC-3 prostate was > 100 µM in each case.
For `COc1ccc(C2SC(N)=Nc3c2c(C)nn3C(=O)c2ccccc2O)cc1OC` (stereo not given), the TGI in the test on SF-539 CNS, with 786-0 renal, in the test on HCT-15 colon, in the test on MDA-MB-231 breast, with SF-268 CNS and with BT-549 breast was > 10 µM each time. In addition, the TGI with K-562 leukemia, with CAKI-1 renal, with MCF7 breast, in the test on IGROV1 ovarian and in the test on PC-3 prostate was > 10 µM throughout.
In the case of `COC(=O)[C@]12CC3C=CC1N(C3)C(CBr)c1c2n(S(=O)(=O)c2ccccc2)c2ccccc12` (stereo not given in full), the TGI is > 100 µM in the test with 786-0 renal; > 100 µM with NCI-H522 lung; > 100 µM in the test on HCT-15 colon; > 100 µM with MDA-MB-231 breast; > 100 µM in the test on BT-549 breast; 0.314 µM in the test with K-562 leukemia. Also, the TGI in the test on CAKI-1 renal, in the test on MCF7 breast, in the test on IGROV1 ovarian, with PC-3 prostate and in the test with HCC-2998 colon was > 100 µM throughout.
Turning to `O=c1oc2ccc3ccccc3c2cc1-c1nnc(Nc2ccccc2)s1`, the TGI is 31.6 µM in the test with 786-0 renal; 69.3 µM in the test with NCI-H522 lung; > 100 µM with HCT-15 colon; 35.1 µM in the test on MDA-MB-231 breast; > 100 µM in the test with SF-268 CNS; > 100 µM with BT-549 breast. The TGI was > 100 µM with K-562 leukemia; > 100 µM with CAKI-1 renal; > 100 µM in the test on MCF7 breast; 36.6 µM in the test on PC-3 prostate; > 100 µM in the test on HCC-2998 colon.
For the compound `CC(/C=C/C(=O)NO)=C\C(C)C(=O)c1ccc(N(C)C)cc1` (stereo not given), the TGI in the test on SF-539 CNS was 2.04 µM; in the test with 786-0 renal, 6.42 µM; in the test on NCI-H522 lung it was < 0.0129 µM; in the test with HCT-15 colon, 21.4 µM; with MDA-MB-231 breast, 0.0538 µM; with SF-268 CNS, 0.195 µM. In addition, the TGI in the test on BT-549 breast is > 60.4 µM; in the test on CAKI-1 renal, 0.0863 µM; with MCF7 breast, > 100 µM; in the test on IGROV1 ovarian, 0.28 µM; in the test on PC-3 prostate, 10.7 µM; in the test with HCC-2998 colon, < 0.0113 µM.
On to `CCc1cccc(C(C)C)c1NC(=O)C(=O)C1C(=O)Nc2ccccc2S1=O` (stereo not given), for which the TGI in the test on SF-539 CNS, in the test on 786-0 renal, in the test on NCI-H522 lung, with HCT-15 colon, in the test on MDA-MB-231 breast and in the test on SF-268 CNS was > 100 µM throughout. Further, the TGI in the test with BT-549 breast, in the test with CAKI-1 renal, in the test on MCF7 breast, in the test on IGROV1 ovarian, in the test with PC-3 prostate and in the test with HCC-2998 colon was > 100 µM throughout.
On to `O=C1C2C(C(=O)N1c1ccccc1)C1(c3ccccc3)CCC2(C(=O)c2ccccc2)O1` (stereo not given), for which the TGI in the test with SF-539 CNS, in the test on 786-0 renal, with NCI-H522 lung, with HCT-15 colon, in the test with MDA-MB-231 breast and in the test with SF-268 CNS was > 10 µM throughout. The TGI in the test with BT-549 breast, in the test on CAKI-1 renal, in the test with MCF7 breast, in the test on IGROV1 ovarian, with PC-3 prostate and in the test on HCC-2998 colon was > 10 µM each time.
With `CC1OC(OC2C(OC(=O)[C@]34CCC(C)(C)C[C@H]3C3=CC[C@@H]5[C@@]6(C)CC[C@H](OC7OC(C(=O)O)C(O)C(O)C7O)C(C)(C)[C@@H]6CC[C@@]5(C)[C@]3(C)C[C@H]4O)OCC(O)C2O)C(O)C(O)C1OC1OCC(O)C(O)C1O` (stereo not given in full), the TGI with 786-0 renal was 28.8 µM and 26.1 µM; with NCI-H522 lung it was 24.4 µM; in the test with HCT-15 colon, 31.6 µM and 33.7 µM; in the test on MDA-MB-231 breast it was 22.3 µM and 8.24 µM; with SF-268 CNS, 34.6 µM and 25.4 µM; in the test with BT-549 breast, 26.9 µM and 29.8 µM. The TGI was 35.4 µM and 36.3 µM in the test with K-562 leukemia; 25.6 µM and 21.6 µM in the test on CAKI-1 renal; 29.4 µM and 17.8 µM in the test on MCF7 breast; 31.5 µM and 27.8 µM with IGROV1 ovarian; 23.7 µM and 18.6 µM in the test on PC-3 prostate; 12.7 µM and 3.07 µM in the test on HCC-2998 colon. In addition, the GI50 with MDA-MB-231 breast is 9.19 µM and 3.49 µM; in the test on MCF7 breast it was 14.4 µM and 5.24 µM; with PC-3 prostate, 11.3 µM and 5.07 µM; in the test on HCC-2998 colon, 4.02 µM and 1.4 µM.
For the compound `CN1C(=O)C2(C)SC1(c1ccccc1)C1C(=O)N(c3ccccc3)C(=O)C12` (stereo not given), the TGI with SF-539 CNS, in the test on 786-0 renal, in the test with NCI-H522 lung, in the test on HCT-15 colon, in the test with MDA-MB-231 breast and in the test on SF-268 CNS was > 100 µM each time. The TGI with BT-549 breast, in the test on K-562 leukemia, in the test with CAKI-1 renal, in the test on MCF7 breast, in the test with IGROV1 ovarian and in the test with PC-3 prostate was > 100 µM in each case.
As for `CSC12c3cc(C)n(-c4ccc([N+](=O)[O-])cc4)c3CC(C)(C)CN1C(=O)C2Oc1ccccc1` (stereo not given), the TGI in the test with SF-539 CNS, in the test on 786-0 renal, in the test on HCT-15 colon, in the test on MDA-MB-231 breast, with BT-549 breast and with K-562 leukemia was > 100 µM in each case. Further, the TGI in the test with CAKI-1 renal, in the test with MCF7 breast, in the test with IGROV1 ovarian, with PC-3 prostate and in the test on HCC-2998 colon was > 100 µM each time.
Take `CC(=O)c1nc2ccccc2n1C(C)C(=O)c1ccccc1` (stereo not given): the TGI with SF-539 CNS, in the test on 786-0 renal, in the test on NCI-H522 lung, with HCT-15 colon, in the test with MDA-MB-231 breast and in the test with SF-268 CNS was > 100 µM each time. The TGI with BT-549 breast, in the test on K-562 leukemia, with CAKI-1 renal, in the test on MCF7 breast, with IGROV1 ovarian and with PC-3 prostate was > 100 µM each time.
